For orientation: IC50 means the concentration that gives 50% inhibition.

The subject of this assay is PMA-differentiated THP-1 cells. The assay can be described thus: IL-1β production in PMA-differentiated THP-1 cells stimulated with gramicidin (hTHP-1 assay containing 2% fetal bovine serum; Procedures 1 and 2). The class given is cell-based, human. The settings on record: 2% fetal bovine serum. The procedure, abridged: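 THP-1 cells were differentiated with PMA (20 ng/ml, 16-18 h), detached, and plated at 50,000 cells/well in RPMI 1640 with 2% FBS. They were pre-treated with compound (0.0017–100 μM, 0.37% DMSO) for 1 h, then stimulated with gramicidin (5 μM) for 2 h. Supernatant IL-1β was measured by HTRF.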

Where [1] appears, read: Homo sapiens, THP-1, Table B2, class symbols, read-out: hTHP-1 IC50.
Setting [2] is: Homo sapiens, THP-1, Table B2, numeric bounds, read-out: hTHP-1 IC50.
Setting [3] is: Table B2, class symbols, read-out: hTHP-1 IC50.
[4] abbreviates: Homo sapiens, THP-1, Table B3, hTHP-1 assay, class symbols, read-out: IC50.
Where [5] appears, read: Table B1, class symbols, read-out: Average IC50 of compounds in hTHP-1 assay: hTHP-1 IC50.
Where [6] appears, read: Table B3, hTHP-1 assay, class symbols, read-out: IC50.
Where [7] appears, read: Homo sapiens, THP-1, Table B1, class symbols, read-out: Average IC50 of compounds in hTHP-1 assay: hTHP-1 IC50.

The structures appear in SMILES notation. Read-outs that look alike come from different tables or passages of the source. Bounds are passed on as bounds.

Turning to `CC(O)c1nc(C(C)(C)O)sc1S(=N)(=O)NC(=O)Nc1c2c(nc3c1CCC3)CCC2` (single isomer, unassigned) [Compound 643a, (R, R/S) or (S, R/S)-N-((1,2,3,5,6,7-hexahydrodicyclopenta [b,e]pyridin-8-yl)carbamoyl)-4-(1-hydroxyethyl)-2-(2-hydroxypropan-2-yl) thiazole-5-sulfonimidamide], the IC50 under setting [1] is 5 to 30 µM.

`C[C@@H]1CCc2c1nc1c(c2NC(=O)N=S(N)(=O)c2ccn(-c3ccccc3)n2)CCC1` (single isomer, unassigned) [Compound 700a, (S) or (R)-N′-(((R)-3-methyl-1,2,3,5,6,7-hexahydrodicyclopenta [b,e]pyridin-8-yl)carbamoyl)-1-phenyl-1H-pyrazole-3-sulfonimidamide]: under setting [2], the IC50 was greater than 30 µM. As to `CCc1ccsc1S(N)(=O)=NC(=O)Nc1c2c(nc3c1CC[C@H]3C)CCC2` (some centres unmarked) [Compound 725a], the IC50 under setting [1] fell in the range of 1 to 5 µM.

Take `CC(C)(O)c1cc(Cl)c(S(N)(=O)=NC(=O)Nc2c3c(nc4c2CCC4)CCC3)s1` (single isomer, unassigned) [Compound 691a, (S) or (R)-3-Chloro-N′-((1,2,3,5,6,7-hexahydrodicyclopenta [b,e]pyridin-8-yl)carbamoyl)-5-(2-hydroxypropan-2-yl)thiophene-2-sulfonimidamide]: the IC50 under setting [3] lay within 5 to 30 µM. On to `Cc1c(C2(F)CC2)nc2c(c1NC(=O)N=S(N)(=O)c1cc(C(C)(C)O)cs1)CCC2` (centres unmarked) [Example 611, N′-((2-(1-fluorocyclopropyl)-3-methyl-6,7-dihydro-5H-cyclopenta[b]pyridin-4-yl)carbamoyl)-4-(2-hydroxypropan-2-yl)thiophene-2-sulfonimidamide], for which the IC50 under setting [4] fell in the range of 1 to 5 µM. Regarding `CC(C)(O)c1cc(F)c(S(N)(=O)=NC(=O)Nc2cc(CC(F)(F)F)nc3c2CCC3)s1` (centres unmarked) [Compound 602, 3-Fluoro-5-(2-hydroxypropan-2-yl)-N′-((2-(2,2,2-trifluoroethyl)-6,7-dihydro-5H-cyclopenta[b]pyridin-4-yl)carbamoyl)thiophene-2-sulfonimidamide], the IC50 under setting [1] lay in the range of 1 to 5 µM. `CC1(C)CCc2c1nc1c(c2NC(=O)N=S(N)(=O)c2cnn3c2OCCC3)CCC1` (single isomer, unassigned) [Compound 304a, (S) or (R)-N′-((3,3-dimethyl-1,2,3,5,6,7-hexahydrodicyclopenta [b,e]pyridin-8-yl)carbamoyl)-6,7-dihydro-5H-pyrazolo[5,1-b][1,3] oxazine-3-sulfonimidamide]: the IC50 under setting [2] is greater than 30 µM. `CC(C)c1ncc(F)c(C(C)C)c1NC(=O)N=S(N)(=O)c1ncc(C(C)(C)O)s1` (centres unmarked) [Compound 165, N′-((5-fluoro-2,4-diisopropylpyridin-3-yl)carbamoyl)-5-(2-hydroxypropan-2-yl)thiazole-2-sulfonimidamide]: under setting [5], the IC50 lay in the range of 1 to 5 µM. As for `CCn1cc(F)c(S(N)(=O)=NC(=O)Nc2c(C)c(C3CC3)nc3c2CCC3)n1` (centres unmarked) [Example 637, N′-((2-cyclopropyl-3-methyl-6,7-dihydro-5H-cyclopenta[b]pyridin-4-yl)carbamoyl)-1-ethyl-4-fluoro-1H-pyrazole-3-sulfonimidamide], the IC50 under setting [4] is 0.2 to 1 µM. For `CCn1cc(F)c(S(N)(=O)=NC(=O)Nc2c3c(nc4c2CC[C@@H]4C)CCC3)n1` (single isomer, unassigned) [Example 711, (R) or (S)-1-ethyl-4-fluoro-N′-(((S)-3-methyl-1,2,3,5,6,7-hexahydrodicyclopenta[b,e]pyridin-8-yl)carbamoyl)-1H-pyrazole-3-sulfonimidamide], the IC50 under setting [6] lay in the range of 0.04 to 0.2 µM. On to `Cc1c(C(F)(F)F)nc2c(c1NC(=O)N=S(N)(=O)c1ccn(C)n1)CCC2` (centres unmarked) [Compound 730], for which, under setting [1], the IC50 lay within 5 to 30 µM. As to `Cc1c(C(F)(F)F)nc2c(c1NC(=O)N=[S@](N)(=O)c1cnc(C(C)(C)O)s1)CC[C@@H]2C` [Compound 608a], the IC50 under setting [1] is 0.2 to 1 µM. As to `Cc1c(C(F)(F)F)nc2c(c1NC(=O)N=S(N)(=O)c1nn(C(C)C)cc1F)CCC2` (centres unmarked) [Example 734, 4-Fluoro-1-isopropyl-N′-((3-methyl-2-(trifluoromethyl)-6,7-dihydro-5H-cyclopenta[b]pyridin-4-yl)carbamoyl)-1H-pyrazole-3-sulfonimidamide], where the note is “Homo sapiens, THP-1, Table B4, class symbols, read-out: hTHP-1 IC50”, the IC50 is 0.2 to 1 µM. Turning to `CCc1nc2c(c(NC(=O)N=S(N)(=O)c3cnc(C(C)(C)O)s3)c1C1CC1)CCC2` (single isomer, unassigned) [Compound 630a, (S) or (R)-N′-((3-cyclopropyl-2-ethyl-6,7-dihydro-5H-cyclopenta[b]pyridin-4-yl)carbamoyl)-2-(2-hydroxypropan-2-yl)thiazole-5-sulfonimidamide], the IC50 under setting [3] was 5 to 30 µM.

Regarding `NS(=O)(=NC(=O)Nc1c2c(nc3c1CCC31CC1)CCC2)c1cnn(C(F)F)c1` (centres unmarked) [Compound 638, 1-(Difluoromethyl)-N′-((1′,5′,6′,7′-tetrahydro-2′H-spiro[cyclopropane-1,3′-dicyclopenta[b,e]pyridin]-8′-yl)carbamoyl)-1H-pyrazole-4-sulfonimidamide], the IC50 under setting [1] is 5 to 30 µM. In the case of `CC(C)(O)c1cc(F)c(S(N)(=O)=NC(=O)Nc2c3c(nc4c2CCC4)CCC3)s1` (single isomer, unassigned) [Compound 105b, (S) or (R)-3-fluoro-N′-((1,2,3,5,6,7-hexahydro-dicyclopenta[b,e]pyridin-8-yl)carbamoyl)-5-(2-hydroxypropan-2-yl)thio-phene-2-sulfonimidamide], the IC50 under setting [5] lay in the range of 1 to 5 µM. In the case of `CC(C)n1cc(CO)c(S(N)(=O)=NC(=O)Nc2c3c(nc4c2CCC4(C)C)CCC3)n1` (centres unmarked) [Compound 682, N′-((3,3-dimethyl-1,2,3,5,6,7-hexahydrodicyclopenta [b,e]pyridin-8-yl)carbamoyl)-4-(hydroxymethyl)-1-isopropyl-1H-pyrazole-3-sulfonimidamide], under setting [1], the IC50 fell in the range of 1 to 5 µM. Take `CCc1nc2c(c(NC(=O)N=S(N)(=O)c3cnc(C(C)(C)O)s3)c1C1CC1)CCC2` (centres unmarked) [Compound 630, N′-((3-cyclopropyl-2-ethyl-6,7-dihydro-5H-cyclopenta[b]pyridin-4-yl)carbamoyl)-2-(2-hydroxypropan-2-yl)thiazole-5-sulfonimidamide]: under setting [1], the half-maximal inhibitory concentration (IC50) is 0.2 to 1 µM.

For the molecule `COC(C)(C)c1nc(CO)c(S(N)(=O)=NC(=O)Nc2c3c(nc4c2CCC4(C)C)CCC3)s1` (single isomer, unassigned) [Compound 648a, (R) or (S)-N′-((3,3-dimethyl-1,2,3,5,6,7-hexahydrodicyclopenta [b,e]pyridin-8-yl)carbamoyl)-4-(hydroxymethyl)-2-(2-methoxypropan-2-yl)thiazole-5-sulfonimidamide], the IC50 under setting [1] fell in the range of 0.2 to 1 µM. As to `CC1(C)Cc2nc3c(c(NC(=O)N=S(N)(=O)c4cnc(C(C)(C)O)s4)c2C1)CCC3` (single isomer, unassigned) [Compound 147b, (R) or (S)-N′-((2,2-dimethyl-1,2,3,5,6,7-hexahydro-dicyclopenta[b,e]pyridin-8-yl)carbamoyl)-2-(2-hydroxypropan-2-yl)thiazole-5-sulfonimidamide], under setting [7], the IC50 lay within 1 to 5 µM.

On to `CC(C)(O)c1ccnc(S(N)(=O)=NC(=O)Nc2c3c(nc4c2CCC4(C)C)CCC3)c1` (centres unmarked) [Compound 620, N′-((3,3-dimethyl-1,2,3,5,6,7-hexahydrodicyclopenta[b,e]pyridin-8-yl)carbamoyl)-4-(2-hydroxypropan-2-yl)pyridine-2-sulfonimidamide], for which, under setting [1], the half-inhibitory concentration (IC50) is 5 to 30 µM. Regarding `CC(C)(O)c1cc(F)c(S(N)(=O)=NC(=O)Nc2c3c(nc4c2CCC4)CCC3)s1` (single isomer, unassigned) [Compound 105a, (R) or (S)-3-fluoro-N′-((1,2,3,5,6,7-hexahydro-dicyclopenta[b,e]pyridin-8-yl)carbamoyl)-5-(2-hydroxypropan-2-yl)thio-phene-2-sulfonimidamide], under setting [5], the IC50 was 0.04 to 0.2 µM. With `CCc1ncc(S(N)(=O)=NC(=O)Nc2c3c(nc4c2CC[C@H]4C)CCC3)s1` (single isomer, unassigned) [Example 673, (S) or (R)-2-ethyl-N′-(((R)-3-methyl-1,2,3,5,6,7-hexahydrodicyclopenta[b,e]pyridin-8-yl)carbamoyl) thiazole-5-sulfonimidamide], the IC50 under setting [6] lay within 5 to 30 µM. With `CC1CCc2nc3c(c(NC(=O)N=S(N)(=O)c4cnc(C(C)(C)O)s4)c21)CCC3` (centres unmarked) [Compound 151, 2-(2-hydroxypropan-2-yl)-N′-((1-methyl-1,2,3,5,6,7-hexahydrodicyclopenta[b,e]pyridin-8-yl)carbamoyl)thiazole-5-sulfonimidamide], the IC50 under setting [7] fell in the range of 0.2 to 1 µM. With `CC(C)(O)c1cc(F)c(S(N)(=O)=NC(=O)Nc2cc(CC(F)(F)F)nc3c2CCC3)s1` (single isomer, unassigned) [Example 690, (S) or (R)-3-Fluoro-5-(2-hydroxypropan-2-yl)-N′-((2-(2,2,2-trifluoroethyl)-6,7-dihydro-5H-cyclopenta[b]pyridin-4-yl)carbamoyl)thiophene-2-sulfonimidamide], the IC50 (Homo sapiens, THP-1, Table B3, hTHP-1 assay, numeric values, read-out: IC50) was greater than 30 µM. `CC1CCc2c1nc1c(c2NC(=O)N=S(N)(=O)c2sc(C(C)(C)O)nc2CO)CCC1` (single isomer, unassigned) [Compound 168a, (S,R/S) or (R,R/S)-4-(hydroxymethyl)-2-(2-hydroxypropan-2-yl)-N′-((3-methyl-1,2,3,5,6,7-hexahydro-dicyclopenta[b,e]pyridin-8-yl)carbamoyl)thiazole-5-sulfonimidamide]: the IC50 under setting [5] is 5 to 30 µM.

Values taken from patent US20230031406A1, “COMPOUNDS AND COMPOSITIONS FOR TREATING CONDITIONS ASSOCIATED WITH NLRP ACTIVITY” (Novartis AG, priority 2018, published 2023).
